Test results published in US20170190705A1, “Compositions and Methods for Inhibiting BMP” (THE BRIGHAM AND WOMAN'S HOSPITAL, INC., priority 2014, published 2017).

What was measured:
Assay type in all cases: biochemical
RSK3 = RSK3 (Homo sapiens, UniProt Q15349); assay: Kinome profiling RSK3; conditions: read-out: Inhibitory activity RSK3; for inhibition at 0.1 µM: 100 nM
Experimental: (§1) . The kinome-wide selectivity was determined following the methods previously reported by Mohedas et al., ACS Chem Biol 2013, 8, 1291-1302 and Sanvitale et al., PLoS One 2013, 8, e62721.

DCAMKL2 = molecular target: T1, DCAMKL2 (Homo sapiens, UniProt Q8N568); assay: Kinome profiling DCAMKL2; conditions: read-out: Inhibitory activity DCAMKL2; for inhibition at 0.1 µM: 100 nM
T1 sequence (Q8N568 1-766): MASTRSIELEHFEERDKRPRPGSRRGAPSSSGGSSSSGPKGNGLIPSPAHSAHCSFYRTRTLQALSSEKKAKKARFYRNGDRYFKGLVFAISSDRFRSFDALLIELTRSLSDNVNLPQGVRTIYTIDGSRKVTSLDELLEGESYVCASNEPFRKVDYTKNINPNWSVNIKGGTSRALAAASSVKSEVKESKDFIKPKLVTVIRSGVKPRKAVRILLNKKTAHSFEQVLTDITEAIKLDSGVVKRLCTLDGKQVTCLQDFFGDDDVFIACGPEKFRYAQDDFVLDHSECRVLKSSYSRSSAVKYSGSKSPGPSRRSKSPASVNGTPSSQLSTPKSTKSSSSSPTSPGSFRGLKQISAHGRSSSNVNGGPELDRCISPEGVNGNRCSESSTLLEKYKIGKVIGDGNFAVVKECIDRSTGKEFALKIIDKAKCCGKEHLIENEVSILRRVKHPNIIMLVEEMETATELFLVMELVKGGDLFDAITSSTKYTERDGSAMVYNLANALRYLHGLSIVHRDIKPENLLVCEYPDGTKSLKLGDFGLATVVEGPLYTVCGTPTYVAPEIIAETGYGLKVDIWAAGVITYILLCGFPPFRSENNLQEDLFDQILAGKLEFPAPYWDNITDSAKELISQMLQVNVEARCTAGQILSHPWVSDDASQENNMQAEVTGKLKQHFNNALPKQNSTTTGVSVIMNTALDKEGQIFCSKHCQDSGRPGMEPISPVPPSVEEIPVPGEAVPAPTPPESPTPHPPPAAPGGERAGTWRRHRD
Experimental: as §1

AURORA-C = molecular target: T2, AURORA-C (Homo sapiens, UniProt Q9UQB9); assay: Kinome profiling AURORA-C; conditions: read-out: Inhibitory activity AURORA-C; for inhibition at 0.1 µM: 100 nM
T2 sequence (Q9UQB9 1-309): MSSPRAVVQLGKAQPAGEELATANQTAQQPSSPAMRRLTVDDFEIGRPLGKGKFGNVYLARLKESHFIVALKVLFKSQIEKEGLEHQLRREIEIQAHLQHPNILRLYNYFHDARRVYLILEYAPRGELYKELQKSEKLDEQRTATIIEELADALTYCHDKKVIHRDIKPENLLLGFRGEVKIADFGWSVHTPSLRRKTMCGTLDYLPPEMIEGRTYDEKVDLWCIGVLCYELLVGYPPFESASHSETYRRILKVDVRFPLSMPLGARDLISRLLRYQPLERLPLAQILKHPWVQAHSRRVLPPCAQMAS
Experimental: as §1

RET = RET (Homo sapiens, UniProt P07949); assay: Kinome profiling RET; conditions: read-out: Inhibitory activity RET; for inhibition at 0.1 µM: 100 nM
Experimental: as §1

MARK4 = molecular target: T3, MARK4 (Homo sapiens, UniProt Q96L34); assay: Kinome profiling MARK4; conditions: read-out: Inhibitory activity MARK4; for inhibition at 0.1 µM: 100 nM
T3 sequence (Q96L34 1-752): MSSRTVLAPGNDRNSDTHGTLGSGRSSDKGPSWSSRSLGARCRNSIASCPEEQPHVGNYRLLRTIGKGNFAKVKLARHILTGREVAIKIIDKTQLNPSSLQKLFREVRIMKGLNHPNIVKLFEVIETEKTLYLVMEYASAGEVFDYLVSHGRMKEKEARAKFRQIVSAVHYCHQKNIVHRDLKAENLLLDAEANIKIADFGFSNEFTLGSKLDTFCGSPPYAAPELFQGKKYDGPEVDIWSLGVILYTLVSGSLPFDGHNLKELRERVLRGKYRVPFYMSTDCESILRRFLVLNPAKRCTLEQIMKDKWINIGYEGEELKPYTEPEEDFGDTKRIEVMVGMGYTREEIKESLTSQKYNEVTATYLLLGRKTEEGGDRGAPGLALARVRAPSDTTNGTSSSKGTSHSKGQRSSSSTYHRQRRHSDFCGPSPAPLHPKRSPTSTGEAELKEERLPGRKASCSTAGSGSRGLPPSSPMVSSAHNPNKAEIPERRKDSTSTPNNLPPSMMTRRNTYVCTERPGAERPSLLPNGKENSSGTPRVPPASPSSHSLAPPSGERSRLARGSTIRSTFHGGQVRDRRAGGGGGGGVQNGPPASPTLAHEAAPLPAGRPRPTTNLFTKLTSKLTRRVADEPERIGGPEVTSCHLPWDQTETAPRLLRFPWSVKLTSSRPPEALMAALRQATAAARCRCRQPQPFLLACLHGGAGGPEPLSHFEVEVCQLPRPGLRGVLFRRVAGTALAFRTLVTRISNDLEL
Experimental: as §1

MRCK-β = MRCK-β (Homo sapiens, UniProt Q9Y5S2); assay: Kinome profiling MRCK-β; conditions: read-out: Inhibitory activity MRCK-β; for inhibition at 0.1 µM: 100 nM
MRCK-β, sequence (Q9Y5S2 whole entry): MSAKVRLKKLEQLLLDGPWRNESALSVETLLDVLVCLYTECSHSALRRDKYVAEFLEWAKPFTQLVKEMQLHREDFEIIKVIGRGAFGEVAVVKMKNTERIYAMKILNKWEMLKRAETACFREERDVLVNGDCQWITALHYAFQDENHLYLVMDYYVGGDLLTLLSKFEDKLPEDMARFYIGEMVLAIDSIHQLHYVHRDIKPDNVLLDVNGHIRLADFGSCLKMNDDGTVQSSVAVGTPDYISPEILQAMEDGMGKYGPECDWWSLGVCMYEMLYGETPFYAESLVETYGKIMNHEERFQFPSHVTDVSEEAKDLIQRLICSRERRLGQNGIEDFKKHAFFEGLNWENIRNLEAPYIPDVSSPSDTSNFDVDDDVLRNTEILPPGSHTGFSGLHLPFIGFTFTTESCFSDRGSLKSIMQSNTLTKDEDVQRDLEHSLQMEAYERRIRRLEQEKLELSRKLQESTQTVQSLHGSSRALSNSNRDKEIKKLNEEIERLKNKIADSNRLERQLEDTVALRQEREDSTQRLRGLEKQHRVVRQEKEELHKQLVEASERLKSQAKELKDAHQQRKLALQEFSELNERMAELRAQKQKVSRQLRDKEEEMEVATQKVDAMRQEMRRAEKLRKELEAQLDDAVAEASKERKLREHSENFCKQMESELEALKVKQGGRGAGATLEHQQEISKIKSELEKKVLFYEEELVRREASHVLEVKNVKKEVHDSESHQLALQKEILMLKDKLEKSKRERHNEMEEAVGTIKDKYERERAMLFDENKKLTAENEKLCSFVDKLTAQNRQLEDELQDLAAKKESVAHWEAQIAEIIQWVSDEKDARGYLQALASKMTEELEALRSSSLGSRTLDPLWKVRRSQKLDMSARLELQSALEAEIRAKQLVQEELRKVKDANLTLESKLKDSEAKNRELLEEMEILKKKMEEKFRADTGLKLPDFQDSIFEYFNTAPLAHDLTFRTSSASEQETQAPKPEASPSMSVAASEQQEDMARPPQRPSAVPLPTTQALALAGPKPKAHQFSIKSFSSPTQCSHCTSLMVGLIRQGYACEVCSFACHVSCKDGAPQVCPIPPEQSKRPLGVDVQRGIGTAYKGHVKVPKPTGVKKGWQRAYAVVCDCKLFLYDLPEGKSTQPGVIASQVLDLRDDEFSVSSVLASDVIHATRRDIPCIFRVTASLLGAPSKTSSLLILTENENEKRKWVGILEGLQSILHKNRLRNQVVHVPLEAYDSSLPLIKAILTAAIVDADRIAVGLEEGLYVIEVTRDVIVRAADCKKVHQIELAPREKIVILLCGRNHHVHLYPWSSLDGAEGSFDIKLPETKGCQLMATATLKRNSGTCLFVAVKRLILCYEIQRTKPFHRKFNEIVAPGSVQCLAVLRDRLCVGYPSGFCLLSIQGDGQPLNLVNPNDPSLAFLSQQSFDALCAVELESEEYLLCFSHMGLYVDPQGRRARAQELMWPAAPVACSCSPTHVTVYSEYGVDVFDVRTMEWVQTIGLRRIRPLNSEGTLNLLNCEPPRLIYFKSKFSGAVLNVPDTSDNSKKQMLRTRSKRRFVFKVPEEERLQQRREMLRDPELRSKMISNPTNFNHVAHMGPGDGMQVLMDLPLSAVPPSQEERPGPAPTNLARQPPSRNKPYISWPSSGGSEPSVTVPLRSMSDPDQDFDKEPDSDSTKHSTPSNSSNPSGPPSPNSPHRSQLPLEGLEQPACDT
Experimental: as §1

ROCK2 = ROCK2 (Homo sapiens, UniProt O75116); assay: Kinome profiling ROCK2; conditions: read-out: Inhibitory activity ROCK2; for inhibition at 0.1 µM: 100 nM
ROCK2, sequence (O75116 whole entry): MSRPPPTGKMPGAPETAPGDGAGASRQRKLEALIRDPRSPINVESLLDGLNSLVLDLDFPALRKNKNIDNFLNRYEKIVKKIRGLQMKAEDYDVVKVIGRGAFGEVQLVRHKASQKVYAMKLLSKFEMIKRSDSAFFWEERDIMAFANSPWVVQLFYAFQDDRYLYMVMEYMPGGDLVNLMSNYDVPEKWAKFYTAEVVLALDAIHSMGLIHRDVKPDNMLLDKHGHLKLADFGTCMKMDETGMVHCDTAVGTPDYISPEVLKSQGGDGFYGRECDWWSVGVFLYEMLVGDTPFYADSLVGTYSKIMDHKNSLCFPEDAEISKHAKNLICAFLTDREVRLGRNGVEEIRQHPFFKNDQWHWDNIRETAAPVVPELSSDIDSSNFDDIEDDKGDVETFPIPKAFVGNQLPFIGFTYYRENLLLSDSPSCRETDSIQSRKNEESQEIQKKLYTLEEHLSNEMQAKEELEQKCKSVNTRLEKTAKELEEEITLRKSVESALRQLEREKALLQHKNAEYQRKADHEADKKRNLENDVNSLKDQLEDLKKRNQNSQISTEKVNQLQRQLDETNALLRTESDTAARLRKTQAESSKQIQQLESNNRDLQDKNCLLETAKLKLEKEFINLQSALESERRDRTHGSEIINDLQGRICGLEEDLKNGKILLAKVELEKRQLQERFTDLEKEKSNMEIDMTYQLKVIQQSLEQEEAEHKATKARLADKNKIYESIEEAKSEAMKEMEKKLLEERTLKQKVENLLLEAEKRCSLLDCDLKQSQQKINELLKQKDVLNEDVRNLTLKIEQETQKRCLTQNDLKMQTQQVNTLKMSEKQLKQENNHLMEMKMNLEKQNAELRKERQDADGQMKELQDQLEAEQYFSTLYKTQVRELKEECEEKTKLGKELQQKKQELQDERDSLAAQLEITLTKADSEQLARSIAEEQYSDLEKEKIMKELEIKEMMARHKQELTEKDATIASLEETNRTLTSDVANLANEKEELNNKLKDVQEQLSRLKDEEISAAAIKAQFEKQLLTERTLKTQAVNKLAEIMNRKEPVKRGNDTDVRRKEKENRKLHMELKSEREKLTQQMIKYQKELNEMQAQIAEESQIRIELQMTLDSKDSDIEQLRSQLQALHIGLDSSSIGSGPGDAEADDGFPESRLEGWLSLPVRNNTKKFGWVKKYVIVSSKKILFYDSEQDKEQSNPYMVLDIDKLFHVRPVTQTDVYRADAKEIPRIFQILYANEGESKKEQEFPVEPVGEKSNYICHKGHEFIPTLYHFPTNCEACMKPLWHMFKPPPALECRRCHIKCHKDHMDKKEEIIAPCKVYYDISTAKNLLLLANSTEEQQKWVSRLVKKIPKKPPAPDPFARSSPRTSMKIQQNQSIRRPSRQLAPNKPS
Experimental: as §1

GSK3β = GSK3β (Homo sapiens, UniProt P49841); assay: Kinome profiling GSK3β; conditions: read-out: Inhibitory activity GSK3β; for inhibition at 0.1 µM: 100 nM
GSK3β, sequence (P49841 whole entry): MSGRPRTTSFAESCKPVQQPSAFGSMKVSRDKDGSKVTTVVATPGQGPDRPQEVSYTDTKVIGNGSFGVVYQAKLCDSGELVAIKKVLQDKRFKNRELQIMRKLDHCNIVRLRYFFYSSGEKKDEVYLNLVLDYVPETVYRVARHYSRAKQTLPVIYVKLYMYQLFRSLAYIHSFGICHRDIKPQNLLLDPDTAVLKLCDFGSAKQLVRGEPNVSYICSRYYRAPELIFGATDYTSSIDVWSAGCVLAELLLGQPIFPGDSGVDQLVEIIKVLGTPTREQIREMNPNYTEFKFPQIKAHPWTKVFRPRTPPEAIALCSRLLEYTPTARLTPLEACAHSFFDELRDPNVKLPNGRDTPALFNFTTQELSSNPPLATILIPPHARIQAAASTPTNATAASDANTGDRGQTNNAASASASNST
Experimental: as §1

FGR = FGR (Homo sapiens, UniProt P09769); assay: Kinome profiling FGR; conditions: read-out: Inhibitory activity FGR; for inhibition at 0.1 µM: 100 nM
FGR, sequence (P09769 whole entry): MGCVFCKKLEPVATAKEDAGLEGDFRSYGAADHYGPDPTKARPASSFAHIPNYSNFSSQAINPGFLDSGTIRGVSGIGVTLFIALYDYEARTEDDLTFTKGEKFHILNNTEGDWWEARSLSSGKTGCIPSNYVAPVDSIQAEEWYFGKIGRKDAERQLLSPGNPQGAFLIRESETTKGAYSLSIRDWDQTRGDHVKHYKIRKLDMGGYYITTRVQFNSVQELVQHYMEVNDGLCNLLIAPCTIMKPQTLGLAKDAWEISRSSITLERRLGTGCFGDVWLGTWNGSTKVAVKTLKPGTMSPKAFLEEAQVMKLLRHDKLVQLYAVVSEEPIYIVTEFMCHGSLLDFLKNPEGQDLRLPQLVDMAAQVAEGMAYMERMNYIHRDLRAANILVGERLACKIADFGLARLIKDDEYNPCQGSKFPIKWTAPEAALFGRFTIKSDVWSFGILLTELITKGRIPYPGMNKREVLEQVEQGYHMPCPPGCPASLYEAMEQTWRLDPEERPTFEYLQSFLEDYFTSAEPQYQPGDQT
Experimental: as §1

RSK3, sequence (Q15349 whole entry): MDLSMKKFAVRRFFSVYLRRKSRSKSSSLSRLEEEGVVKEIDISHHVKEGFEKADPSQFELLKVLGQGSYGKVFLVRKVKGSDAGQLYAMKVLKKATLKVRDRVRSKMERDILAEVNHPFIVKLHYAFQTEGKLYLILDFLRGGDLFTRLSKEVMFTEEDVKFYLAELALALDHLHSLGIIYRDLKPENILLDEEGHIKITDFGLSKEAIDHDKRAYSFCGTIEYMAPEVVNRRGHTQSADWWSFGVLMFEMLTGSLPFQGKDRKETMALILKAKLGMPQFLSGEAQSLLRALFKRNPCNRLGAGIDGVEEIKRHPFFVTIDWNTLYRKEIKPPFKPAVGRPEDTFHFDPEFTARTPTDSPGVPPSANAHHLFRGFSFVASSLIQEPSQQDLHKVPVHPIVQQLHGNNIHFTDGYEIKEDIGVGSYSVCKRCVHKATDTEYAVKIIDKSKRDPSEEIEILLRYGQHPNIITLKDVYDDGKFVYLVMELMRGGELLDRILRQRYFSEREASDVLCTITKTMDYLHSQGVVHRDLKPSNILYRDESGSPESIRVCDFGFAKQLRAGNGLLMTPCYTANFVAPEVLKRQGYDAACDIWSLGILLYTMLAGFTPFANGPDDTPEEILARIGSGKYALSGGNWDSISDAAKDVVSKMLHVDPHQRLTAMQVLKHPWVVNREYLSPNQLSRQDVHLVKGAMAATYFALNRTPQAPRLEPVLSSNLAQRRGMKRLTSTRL

Structure (SMILES) | inhibition at 0.1 µM (RSK3) [%] | inhibition at 1 µM (RSK3) [%] | inhibition at 0.1 µM (DCAMKL2) [%] | inhibition at 1 µM (DCAMKL2) [%] | inhibition at 0.1 µM (AURORA-C) [%] | inhibition at 1 µM (AURORA-C) [%] | inhibition at 0.1 µM (RET) [%] | inhibition at 1 µM (RET) [%] | inhibition at 0.1 µM (MARK4) [%] | inhibition at 1 µM (MARK4) [%] | inhibition at 0.1 µM (MRCK-β) [%] | inhibition at 1 µM (MRCK-β) [%] | inhibition at 0.1 µM (ROCK2) [%] | inhibition at 1 µM (ROCK2) [%] | inhibition at 0.1 µM (GSK3β) [%] | inhibition at 1 µM (GSK3β) [%] | inhibition at 0.1 µM (FGR) [%] | inhibition at 1 µM (FGR) [%]
COc1cc(-c2cc(-c3ccc(N4CCNCC4)cc3)cnc2C)cc(OC)c1OC [Compound 10, 1-(4-(6-methyl-5-(3,4,5-trimethoxyphenyl)pyridin-3-yl)phenyl)piperazine] | 3 | 3 | 1 | 0 | 1 | 1 | 2 | 2 | 1 | 2 | 0 | 0 | 4 | 3 | 2 | 4 | 9 | 36
COc1cc(-c2cc(-c3ccc(N4CCNCC4)cc3)cnc2N)cc(OC)c1OC [Compound 15, 5-(4-(piperazin-1-yl)phenyl)-3-(3,4,5-trimethoxyphenyl)pyridin-2-amine] | 2 | 3 | -1 | 3 | 3 | 7 | 8 | 8 | 5 | 40 | 3 | 22 | -1 | 2 | 0 | -1 | 36 | 76
